Reference: EP0139627A1, “Process for the preparation of 5,10-dihydro-1H-dibenzo [B,E] [1,4] diazepin-11-ones substituted in position 5” (ARZNEIMITTELWERK DRESDEN GmbH, priority 1983, dated 1985)
Where two headings read alike, the source gives them in different places.

Columns and labels:
[1] = tested on: streßinduzierten Magenulzera; experiment: Inhibition of stress-induced gastric ulcers (immobilisation ulcer, method of Brodie); assay type: in vivo, Ratten; settings: Rattus norvegicus, read-out: Immobilisationsulkus ED50
Description: Die Hemmwirkung auf die Bildung von streßinduzierten Magenulzera wurde nach der Methode von D.A.Brodie, Gastroenterolody, 38 (1960), 50, an weiblichen Ratten im Gewicht von 150 - 180 Gramm vom VEB Versuchstierproduktion Schönwalde bestimmt. Die Nahrungskarenz vor Versuchsbeginn betrug 48 Stunden, bei Wasser ad libitum. Die Testsubstanzen wurden unmittelbar vor Versuchsbeginn oral, mittels Schlundsonde appliziert. Die Immobilisation erfolgte mittels Gipsbinden über 18 Stunden. Während der Versuchsdauer war die Raumtemperatur konstant 20° C. Nach Versuchsende wurden die Tiere durch Äther getötet, die Mägen entnommen, entlang der kleinen Kurvatur aufgeschnitten und die Drüsenschleimhautdefekte nach Zahl und Länge im Vergleich zur Kontrollgruppe beurteilt. Für die statistische Berechnung diente die Probit-Regressions-Analyse.

Größe der Pupille [2] = settings: mouse, in vivo, po
Description: (§1) Die Wirkung der Substanzen auf die Größe der Pupille wurde an weiblichen Mäusen im Gewicht zwischen 18 und 23 Gramm nach der Versuchsordnung von R.Pulewka, Exp.Pathol. […] 30, 60, 90, 120, 180 und 240 Minuten nach oraler Präparatgabe wurde die Pupillenweite bestimmt und die x-fache Veränderung zum Ausgangswert berechnet. Als ED3-fach gilt die Dosis, bei der eine dreifache Pupillenerweiterung im Vergleich zum Ausgangswert auftritt.

[3] = tested on: phenylbutazoninduzierte Magenulzera; experiment: Inhibition of phenylbutazone-induced gastric ulcers (model of Beattie et al.); assay type: in vivo, Ratten; settings: Rattus norvegicus, 48 h; female rats, oral dose half an hour before each s.c. injection of 150 mg/kg Phenylbutazon on two days; read-out: Phenylbutazonulkus ED50
Experimental: Die Hemmwirkung der Verbindungen auf phenylbutazoninduzierte Magenulzera wurde in Anlehnung an das Modell von Beattie und Mitarbeiter, Arzneimittelforschung, 29, (1979), 1812 ermittelt. Für die Untersuchung kamen weibliche Ratten der hauseigenen Zucht im Gewicht von 150 - 180 Gramm zur Anwendung.
Die Nahrungskarenz vor Versuchsbeginn betrug 24 Stunden, bei Wasser ad libitum. Während des Versuchs wurden die Tiere im Klimaraum bei einer Temperatur zwischen 22° C und 23° C gehalten. Die Ratten erhielten zwei Tage hintereinander jeweils 7 Uhr morgens eine s.c. Injektion von 150 mg/kg Phenylbutazon und die Tötung erfolgte sechs Stunden nach der letzten Injektion durch Nackenschlag. Die herauspräparierten Mägen wurden entlang der kleinen Kurvatur aufgeschnitten und die Schleimhautdefekte nach Zahl und Länge beurteilt. Die Applikation der Prüfsubstanzen erfolgte oral, eine halbe Stunde vor jeder Phenylbutazoninjektion.

in vivo = settings: mouse, male and female mice, oral, read-out: akute Toxizität LD50
Description: Die akute Toxizität wurde an jeweils 5 männlichen und 5 weiblichen Mäusen im Gewicht von 18 - 23 Gramm pro dosi bestimmt. Die Applikation der Prüfsubstanzen erfolgte oral. Die Berechnung der LD50 wurde nach Litchfield und Wilcoxon durchgeführt.

Größe der Pupille [4] = experiment: Effect on pupil size (mydriasis, method of Pulewka); settings: female mice, oral; dose that widens the pupil three-fold versus baseline
Description: as §1

[5] = female rats, oral dose immediately before start, immobilisation for 18 hours, probit regression analysis

Question: What does the source list for `CN1C2CCC1CC(OC(=O)C(CO)c1ccccc1)C2` (racemic) [Atropin, reference compound]?
Answer: ED50 ([1]; po, 18 h): 0.6 mg/kg; Pupillomotorik ED3-fach (Größe der Pupille [2]): 0,8 mg/kg

Question: What does the source list for `O=C1Nc2cc(Cl)ccc2N(C(=O)CN(CCO)CCO)c2ccccc21` [A, 8-Chlor-5,10-dihydro-5-[bis-(2-hydroxyäthyl)amino-acetyl]-11H-dibenzo[b,e] [1,4]diazepin-11-on]?
Answer: ED50 [1, 5]: 6 mg/kg; ED50 [3]: 5 mg/kg; LD50 (in vivo): 2000 mg/kg; Pupillomotorik ED3-fach (Größe der Pupille [2]): 30 mg/kg

Question: With `O=C1Nc2ccccc2N(C(=O)CN(CCO)CCO)c2ccccc21` [B, 5,10-Dihydro-5-[bis-(2-hydroxyäthyl) -aminoacetyl]-11H-dibenzo[b,e][1,4] diazepin-11-on] as the molecule, how does the ED50 [1, 5] read?
Answer: 1 mg/kg

Question: What about the ED50 [3] of the same molecule?
Answer: 1.6 mg/kg

Question: And the LD50 (in vivo)?
Answer: 2000 mg/kg

Question: And the “Pupillomotorik ED3-fach” value (Größe der Pupille [2])?
Answer: 4 mg/kg

Question: For `O=C1Nc2ccccc2N(C(=O)CN2CCN(C(=O)c3ccco3)CC2)c2ccccc21` [C, 5,10-Dihydro-5-(2-{4-[(2-furanyl)-carbonyl] -1-piperazinyl}-acetyl)-11H-dibenzo[b,e] [1,4]diazepin-11-on], which ED50 [1, 5] is on record?
Answer: 14 mg/kg

Question: What about the ED50 [3] of the same molecule?
Answer: 20 mg/kg

Question: And the LD50 (in vivo)?
Answer: 2000 mg/kg

Question: And the “Pupillomotorik ED3-fach” value (Größe der Pupille [2])?
Answer: 67 mg/kg

Question: Which ED50 [1, 5] does the source give for `CN1C(=O)c2ccccc2N(C(=O)CN2CCN(C(=O)c3ccco3)CC2)c2ccc(Cl)cc21` [D, 8-Chlor-5, 10-dihydro-5-(2-{4-[(2-furanyl)-carbonyl]-1-piperazinyl}-acetyl)-10-methyl-11H-dibenzolbenzo[b,e][1,4]-diazepin-11-on] here?
Answer: 26 mg/kg

Question: What about the ED50 [3] of the same molecule?
Answer: 36 mg/kg

Question: And the LD50 (in vivo)?
Answer: 1600 mg/kg

Question: What about the “Pupillomotorik ED3-fach” value (Größe der Pupille [2]) of the same molecule?
Answer: 250 mg/kg

Question: What does the source list for `CN1C(=O)c2ccccc2N(C(=O)CN(CCO)CCO)c2ccccc21` [E, 5,10-Dihydro-10-methyl-5-[bis-{2-hydroxyäthyl)-amino-acetyl]-11H-dibenzo[b,e] [1,4]diazepin-11-on]?
Answer: ED50 [1, 5]: 27 mg/kg; ED50 [3]: 22 mg/kg; LD50 (in vivo): 1000 mg/kg; Pupillomotorik ED3-fach (Größe der Pupille [2]): 95 mg/kg

Question: With `CN1CCN(CC(=O)N2c3ccccc3C(=O)Nc3cccnc32)CC1` [Pi renzepin, Pirenzepin, reference compound] as the molecule, how does the ED50 [1, 5] read?
Answer: 11 mg/kg

Question: What about the ED50 [3] of the same molecule?
Answer: 18 mg/kg

Question: What about the “Pupillomotorik ED3-fach” value (Größe der Pupille [4]) of the same molecule?
Answer: 30 mg/kg
